Legend:
Assay in all cases: relative viability (nuclei count vs DMSO), 5 days (fraction); higher = more cells survive
[1] = compound: C1/C(=C\C2=CC=CS2)/C(=O)/C(=C/C3=CC=CS3)/C1 + C[C@@H](Oc1cc(-c2cnn(C3CCNCC3)c2)cnc1N)c1c(Cl)ccc(F)c1Cl [Crizotinib] (partner 1 µM)
In short: (§1)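 Each reported value is a median over duplicate plates. It expresses relative viability: treated-well nuclei count divided by vehicle-well nuclei count. Lung cancer cell lines in 1536-well plates were dosed by pin tool a day after seeding, alone with one drug or with a fixed anchor-drug dose plus five library-drug doses (not always all listed) in √10 steps, and nuclei were counted after 5 days.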

TPCA-1 + Lapatinib = compound: C1=CC(=CC=C1C2=CC(=C(S2)NC(=O)N)C(=O)N)F [TPCA-1] + CS(=O)(=O)CCNCc1ccc(-c2ccc3ncnc(Nc4ccc(OCc5cccc(F)c5)c(Cl)c4)c3c2)o1 [Lapatinib] (partner 2 µM)
In short: as §1

[2] = compound: C[C@]12O[C@H](C[C@]1(O)CO)n1c3ccccc3c3c4c(c5c6ccccc6n2c5c31)CNC4=O [Lestaurtinib] + C[C@]1(O)C[C@@H](c2nc(-c3ccc4ccc(-c5ccccc5)nc4c3)c3c(N)nccn32)C1 [Linsitinib] (partner 1 µM)
In short: as §1

[3] = compound: C[C@]12O[C@H](C[C@]1(O)CO)n1c3ccccc3c3c4c(c5c6ccccc6n2c5c31)CNC4=O [Lestaurtinib] + Cc1cc(Nc2cc(N3CCN(C)CC3)nc(Sc3ccc(NC(=O)C4CC4)cc3)n2)n[nH]1 [Tozasertib] (partner 0.1 µM)
In short: as §1

Cell Line	relative viability ([1]; first compound 0.2 µM)	relative viability ([1]; first compound 0.6325 µM)	relative viability ([1]; first compound 2 µM)	relative viability ([1]; first compound 6.325 µM)	relative viability ([1]; first compound 20 µM)	relative viability (TPCA-1 + Lapatinib; first compound 0.04 µM)	relative viability (TPCA-1 + Lapatinib; first compound 0.1265 µM)	relative viability (TPCA-1 + Lapatinib; first compound 0.4 µM)	relative viability (TPCA-1 + Lapatinib; first compound 1.265 µM)	relative viability (TPCA-1 + Lapatinib; first compound 4 µM)	relative viability ([2]; first compound 0.005 µM)	relative viability ([2]; first compound 0.01581 µM)	relative viability ([2]; first compound 0.05 µM)	relative viability ([2]; first compound 0.1581 µM)	relative viability ([2]; first compound 0.5 µM)	relative viability ([3]; first compound 0.005 µM)	relative viability ([3]; first compound 0.01581 µM)	relative viability ([3]; first compound 0.05 µM)	relative viability ([3]; first compound 0.1581 µM)	relative viability ([3]; first compound 0.5 µM)
NCI-H2087	0.867	0.901	0.746	0.735	0.993	1.08	0.914	0.905	0.798	0.247	1	0.923	0.709	0.648	0.275	0.321	0.378	0.208	0.265	0.212
NCI-H2126	1	1.1	0.989	0.887	0.986	0.827	0.736	0.808	0.749	0.669	0.725	0.735	0.573	0.605	0.585	0.919	0.963	0.802	0.699	0.48
NCI-H2228	0.669	0.528	0.515	0.374	0.441	1.54	0.867	1.32	0.853	0.537	0.892	0.812	0.402	0.284	0.37	0.178	0.23	0.257	0.219	0.163
NCI-H2347	0.717	0.771	0.7	0.689	0.606	1.07	0.739	0.963	0.78	0.896	1.06	1.05	0.86	0.575	0.55	1.15	0.64	0.493	0.412	0.537
NCI-H2405	0.904	0.851	0.851	0.798	0.839	1.19	0.915	1.1	–	0.949	0.934	0.703	0.674	0.612	0.241	0.797	0.814	0.78	0.511	0.271
NCI-H3122	0.247	0.273	0.279	0.215	0.272	1.03	0.939	0.985	1.05	0.976	1.11	1.09	1.01	1.08	0.527	0.56	0.553	0.421	0.366	0.176
PC-3 [JPC-3]	0.978	0.997	0.944	0.859	1	0.435	0.487	0.481	0.454	0.434	1.02	0.954	0.951	0.87	1	0.87	0.998	0.765	0.777	0.587
PC-14	0.995	0.838	0.819	0.725	0.956	0.336	0.327	0.321	0.394	0.299	0.933	1.04	0.543	0.613	0.578	0.639	0.668	0.674	0.546	0.163
RERF-LC-KJ	0.794	0.843	0.832	0.763	0.754	0.966	0.79	0.808	0.809	0.765	0.964	0.946	0.535	0.619	0.516	0.489	0.592	0.44	0.433	0.284
SK-LU-1	1.12	1.03	0.925	0.763	0.923	0.799	0.841	0.888	0.698	0.569	0.883	0.686	0.537	0.505	0.261	0.288	0.349	0.267	0.293	0.204
SK-MES-1	0.978	1.04	0.903	0.879	0.917	0.479	0.402	0.429	0.471	0.34	1.04	1.06	0.501	0.485	0.317	0.966	0.834	0.341	0.455	0.197
SW 1573	0.778	0.693	0.889	0.749	0.895	0.829	1.04	1.17	1.18	1.19	0.796	0.841	0.695	0.615	0.222	0.146	0.172	0.142	0.1	0.116

— the supplement of paper PMC10307832
